Laboratory results from ChEMBL document CHEMBL1201862, “PubChem BioAssay data set” (2004).
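Test compounds were applied to cells in 96-well plates for 48 hours at 5 doses. The concentration for 50% growth inhibition is given as GI50.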 Active and inactive are the calls of the source. No stated cut-off is given here; in the data, active = GI50 up to about 1.1 µM and inactive = higher.

Experiments:
Assay in all cases: growth of human tumour cells (NCI), 48 h
SF-295 = tested on: SF-295
HOP-92 = tested on: HOP-92
MOLT-4 = tested on: MOLT-4
SF-539 = tested on: SF-539
DU-145 = tested on: DU-145
CAKI-1 = tested on: CAKI-1
RPMI-8226 = tested on: RPMI-8226
MDA-MB-231 = tested on: MDA-MB-231
HCC 2998 = tested on: HCC 2998
HL-60 = tested on: HL-60
HCT-116 = tested on: HCT-116
NCI-H522 = tested on: NCI-H522
SR = tested on: SR
SW-620 = tested on: SW-620
SK-MEL-2 = tested on: SK-MEL-2
OVCAR-3 = tested on: OVCAR-3
SNB-19 = tested on: SNB-19
LOX IMVI = tested on: LOX IMVI
MCF7 = tested on: MCF7
MDA-N = tested on: MDA-N

SMILES	GI50 (SF-295)	GI50 (HOP-92)	GI50 (MOLT-4)	GI50 (SF-539)	GI50 (DU-145)	GI50 (CAKI-1)	GI50 (RPMI-8226)	GI50 (MDA-MB-231)	GI50 (HCC 2998)	GI50 (HL-60)	GI50 (HCT-116)	GI50 (NCI-H522)	GI50 (SR)	GI50 (SW-620)	GI50 (SK-MEL-2)	GI50 (OVCAR-3)	GI50 (SNB-19)	GI50 (LOX IMVI)	GI50 (MCF7)	GI50 (MDA-N)
FC(F)(F)c1n[nH]c(SCc2ccc(Cl)cc2)n1	> 100 µM (inactive)	> 100 µM (inactive)	> 100 µM (inactive)	> 100 µM (inactive)	> 100 µM (inactive)	> 100 µM (inactive)	> 100 µM (inactive)	> 100 µM (inactive)	> 100 µM (inactive)	> 100 µM (inactive)	> 100 µM (inactive)	> 100 µM (inactive)	> 100 µM (inactive)	> 100 µM (inactive)	> 100 µM (inactive)	> 100 µM (inactive)	> 100 µM (inactive)	> 100 µM (inactive)	> 100 µM (inactive)	> 100 µM (inactive)
NC(=O)C1=CC2C3C=CC2(O)C(=O)OC3O1 (stereo not given)	11.9 µM (inactive)	2.43 µM (inactive)	1.88 µM (inactive)	3.56 µM (inactive)	3.89 µM (inactive)	6.07 µM (inactive)	1.57 µM (inactive)	7.64 µM (inactive)	12.2 µM (inactive)	1.5 µM (inactive)	2.62 µM (inactive)	1.83 µM (inactive)	1.68 µM (inactive)	4.02 µM (inactive)	3.57 µM (inactive)	2.43 µM (inactive)	13.1 µM (inactive)	2.14 µM (inactive)	3.28 µM (inactive)	2.61 µM (inactive)
NC(=O)NC(=O)c1cccc(NC(=O)CBr)c1	0.197 µM (active)	< 0.0216 µM (active)	< 0.01 µM (active)	< 0.0362 µM (active)	< 0.022 µM (active)	< 0.01 µM (active)	< 0.0141 µM (active)	0.0631 µM (active)	0.282 µM (active)	< 0.01 µM (active)	< 0.01 µM (active)	< 0.01 µM (active)	< 0.01 µM (active)	< 0.01 µM (active)	0.0286 µM (active)	< 0.01 µM (active)	0.515 µM (active)	< 0.01 µM (active)	< 0.01 µM (active)	< 0.0134 µM (active)
C=Cc1nc2c(Cl)ncnc2n1Cc1ccccc1	15.6 µM (inactive)	2.07 µM (inactive)	2.18 µM (inactive)	2.13 µM (inactive)	2.17 µM (inactive)	1.91 µM (inactive)	0.839 µM (active)	5.74 µM (inactive)	2.61 µM (inactive)	2.72 µM (inactive)	2.06 µM (inactive)	1.89 µM (inactive)	2.56 µM (inactive)	5.94 µM (inactive)	12.1 µM (inactive)	2.58 µM (inactive)	14.8 µM (inactive)	2.76 µM (inactive)	1.55 µM (inactive)	3.12 µM (inactive)
C(=C\c1ccccc1)/C=N/c1nc2cc3sc(/N=C/C=C/c4ccccc4)nc3cc2s1	> 78 µM (inactive)	> 100 µM (inactive)	7.35 µM (inactive)	> 100 µM (inactive)	> 100 µM (inactive)	70.6 µM (inactive)	> 87.7 µM (inactive)	> 100 µM (inactive)	> 100 µM (inactive)	12.1 µM (inactive)	28.5 µM (inactive)	18.2 µM (inactive)	2.95 µM (inactive)	> 45.3 µM (inactive)	> 100 µM (inactive)	24.3 µM (inactive)	> 100 µM (inactive)	29.9 µM (inactive)	12.6 µM (inactive)	> 72.1 µM (inactive)
CCC(=O)C(CCN1CCC2(CCCc3ccccc32)CC1)(c1ccccc1)c1ccccc1	2.02 µM (inactive)	1.47 µM (inactive)	1.41 µM (inactive)	2.95 µM (inactive)	3.1 µM (inactive)	3.44 µM (inactive)	0.622 µM (active)	2.51 µM (inactive)	2.64 µM (inactive)	1.57 µM (inactive)	1.42 µM (inactive)	1.75 µM (inactive)	1.66 µM (inactive)	2.87 µM (inactive)	2 µM (inactive)	2.2 µM (inactive)	4.75 µM (inactive)	0.851 µM (active)	2.86 µM (inactive)	3.96 µM (inactive)
C[C@]12C=CC(=O)C=C1[C@@H](F)C[C@H]1[C@@H]3CC[C@](O)(C(=O)CO)[C@@]3(C)C[C@H](O)[C@@]12F	> 100 µM (inactive)	> 100 µM (inactive)	> 100 µM (inactive)	> 100 µM (inactive)	> 100 µM (inactive)	> 100 µM (inactive)	> 87.5 µM (inactive)	> 100 µM (inactive)	> 100 µM (inactive)	> 100 µM (inactive)	> 100 µM (inactive)	> 100 µM (inactive)	> 100 µM (inactive)	> 100 µM (inactive)	> 100 µM (inactive)	> 100 µM (inactive)	> 100 µM (inactive)	> 100 µM (inactive)	> 100 µM (inactive)	> 100 µM (inactive)
